Source: patent US20030096237A1, “Determination of the ability of patients to respond to a tumor treatment” (priority 2000, published 2003)

Tested on: CNCM I-2545
Assay: oligonucleotide array analysis of IFN-α modulated gene expression
Format: cell-based, human
Set-up: key to nAD M94880 mhc class i (hla-a*8001): normalized average difference between perfect and mismatch probeset signals
Method: All these cell lines were cultured in RPMI medium supplemented with 10% FCS, glutamine (2 mM), sodium pyruvate (1 mM), non-essential amino acids and HEPES buffer (10 mM) (all from GIBCO Life Sciences, Paisley, UK). When confluent, the cells were passaged by trypsinization.
Cultured melanoma cells were harvested by scraping and total cellular RNA was extracted. 10 μg from each sample were used directly as templates for cDNA synthesis using a commercial kit (Roche Molecular Biochemicals, Rotkreuz, Switzerland). The T7 promoter sequence incorporated into the cDNA synthesis primer allowed template amplification and biotin labeling by in vitro transcription using a commercial kit (Affymetrix, Santa Clara, Calif.). After alkaline heat fragmentation […] was hybridised to the array (Affymetrix, Santa Clara, Calif.) and all subsequent steps were performed following standard procedures as supplied with the arrays. Raw data were collected with a confocal laser scanner (Hewlett Packard, Palo Alto, Calif.) using GeneChip software v3.1 (Affymetrix, Santa Clara, Calif.).
Raw data were normalized based on the total chip signal obtained upon hybridisation of ME15 cell line cDNA. This array was selected because: i) the 5′/3′ intensity ratio of control genes was smaller than 3; ii)>25% of the genes are called “present” by Genechip; iii) the image appearance is homogeneous with low background and no sign of mechanical chip damage.
The normalized average difference (nAD) between the signals of the perfect and of the mismatch probesets for each gene was used as the expression level of a given gene. At least one nAD value in a pairwise comparison of data has to exceed 50 to be included. Based on nAD, change factors related to IFN-α exposure were also calculated. Negative nAD values were set to 20 in order to avoid the calculation of artificially high modifications. In order to exclude artefacts, only genes with robust change factors, greater than 2-fold, were included in the analysis. […] Genes were clustered according to their mode of regulation.
Total cellular RNA was extracted from the sensitive and resistant melanoma cell lines identified above, reverse transcribed and processed for hybridization to an oligonucleotide array (Hu6800FL, PN 900183) containing probe sets derived from 7000 full-length human genes. Expression levels for each gene were calculated as normalized average difference (nAD, see materials and methods).
Patterns of genes expressed in IFN-α sensitive and resistant melanoma cell lines were investigated upon 48 hour culture in the presence of IFN-α. CNCM I-2546 and CNCM I-2545 were studied in detail.
In Table 2 below, CNCM I-2546 and CNCM I-2545 cultured for 48 hours in the absence or in the presence of 100 U/ml IFN-α were used to assay cytokine modulated gene expression as matched with data obtained in fibrosarcoma cells. This analysis yielded six clusters of genes. […] Data are presented as average difference of signal intensity between match and mismatch probesets.
In Table 3 below, CNCM I-2546 and CNCM I-2545 cell lines cultured for 48 hours in the absence or in the presence of 100 U/ml IFN-α were used to identify novel cytokine induced genes whose expression was not found to be modulated in fibrosarcoma cells. Cluster 1 includes genes inducible in the CNCM I-2546 sensitive but not in the CNCM I-2545 resistant cell line. Cluster 2 comprises genes inducible in both lines. Data are presented as average difference of signal intensity between match and mismatch probesets.

[1] = CNCM I-2545 (+) IFN-α 100 U/ml 48 hours, (−) 11
[2] = CNCM I-2545 (+) IFN-α 100 U/ml 48 hours, (−) 106
[3] = CNCM I-2545 (+) IFN-α 100 U/ml 48 hours, (−) 115
[4] = CNCM I-2545 (+) IFN-α 100 U/ml 48 hours, (−) 234
[5] = CNCM I-2545 (+) IFN-α 100 U/ml 48 hours, (−) 238

Substance: IFN-α
- nAD X15949 interferon regulatory factor-2 (irf-2) (CNCM I-2545 (+) IFN-α 100 U/ml 48 hours, (−) 0): 13
- nAD M92642 alpha-1 type xvi collagen (col16a1) [1]: 115
- nAD U18018 ela enhancer binding protein (ela-f) [1]: 23
- nAD M30818 interferon-induced cellular resistance mediator protein (CNCM I-2545 (+) IFN-α 100 U/ml 48 hours, (−) 20): 5
- nAD L07633 interferon-gamma (CNCM I-2545 (+) IFN-α 100 U/ml 48 hours, (−) 22): 275
- nAD X70848 protein phosphatase 1, catalytic subunit (CNCM I-2545 (+) IFN-α 100 U/ml 48 hours, (−) 24): 226
- nAD D28137 bst-2 (CNCM I-2545 (+) IFN-α 100 U/ml 48 hours, (−) 37): 88
- nAD J03909 gamma-interferon-inducible protein (ip-30) (CNCM I-2545 (+) IFN-α 100 U/ml 48 hours, (−) 42): 142
- nAD L42243 ifnar2 gene (interferon receptor) (CNCM I-2545 (+) IFN-α 100 U/ml 48 hours, (−) 62): −6
- nAD J04182 lysosomal membrane glycoprotein-1 (lamp1) (CNCM I-2545 (+) IFN-α 100 U/ml 48 hours, (−) 66): 484
- nAD D78132 rheb gene, ras-related gtp binding protein gene (CNCM I-2545 (+) IFN-α 100 U/ml 48 hours, (−) 88): 253
- nAD Z56281 interferon regulatory factor 3 (CNCM I-2545 (+) IFN-α 100 U/ml 48 hours, (−) 93): 31
- nAD U53830 interferon regulatory factor 7a (CNCM I-2545 (+) IFN-α 100 U/ml 48 hours, (−) 103): 5
- nAD L40387 thyroid receptor interactor (trip14) (CNCM I-2545 (+) IFN-α 100 U/ml 48 hours, (−) 104): 5
- nAD J00212 leukocyte interferon (ifn-alpha) [2]: 9
- nAD U50648 interferon-inducible rna-dependent protein kinase (pkr) [2]: 46
- nAD U69126 fuse binding protein 2 (fbp2) (CNCM I-2545 (+) IFN-α 100 U/ml 48 hours, (−) 114): 159
- nAD M60784 ul snrnp-specific protein [3]: 413
- nAD U70063 human acid ceramidase [3]: 400
- nAD U72882 interferon-induced leucine zipper protein (ifp35) (CNCM I-2545 (+) IFN-α 100 U/ml 48 hours, (−) 125): 27
- nAD X76538 mpv17 (CNCM I-2545 (+) IFN-α 100 U/ml 48 hours, (−) 132): 101
- nAD M19650 2′,3′-cyclic nucleotide 3prime-phosphodiesterase (CNCM I-2545 (+) IFN-α 100 U/ml 48 hours, (−) 137): 99
- nAD X57522 ring4 cdna (CNCM I-2545 (+) IFN-α 100 U/ml 48 hours, (−) 143): 49
- nAD M65028 heterogeneous nuclear ribonucleoprotein a/b (CNCM I-2545 (+) IFN-α 100 U/ml 48 hours, (−) 154): 353
- nAD K01900 lymphocyte interferon alpha type 201 (CNCM I-2545 (+) IFN-α 100 U/ml 48 hours, (−) 156): 7
- nAD U78525 human eukaryotic translation initiation factor (eif3) (CNCM I-2545 (+) IFN-α 100 U/ml 48 hours, (−) 165): 372
- nAD M79462 pml-1 (CNCM I-2545 (+) IFN-α 100 U/ml 48 hours, (−) 201): 11
- nAD L37043 casein kinase i epsilon (CNCM I-2545 (+) IFN-α 100 U/ml 48 hours, (−) 218): 221
- nAD X04412 plasma gelsolin (CNCM I-2545 (+) IFN-α 100 U/ml 48 hours, (−) 220): 220
- nAD X96401 rox protein (CNCM I-2545 (+) IFN-α 100 U/ml 48 hours, (−) 229): 83
- nAD D50914 EST [4]: 78
- nAD X07730 prostate specific antigen [4]: 85
- nAD U72206 guanine nucleotide regulatory factor (lfp40) [5]: 162
- nAD Z26491 gene catechol o-methyltransferase [5]: 181
- nAD U91316 acyl-coa thioester hydrolase (CNCM I-2545 (+) IFN-α 100 U/ml 48 hours, (−) 253): 428
- nAD U51127 interferon regulatory factor 5 (CNCM I-2545 (+) IFN-α 100 U/ml 48 hours, (−) 262): 91
- nAD U52513 rig-g (CNCM I-2545 (+) IFN-α 100 U/ml 48 hours, (−) 289): 10
- nAD M97935 transcription factor isgf-3 (CNCM I-2545 (+) IFN-α 100 U/ml 48 hours, (−) 331): 92
- nAD U01824 glutamate/aspartate transporter (CNCM I-2545 (+) IFN-α 100 U/ml 48 hours, (−) 339): 35
- nAD HG2917 major histocompatibility complex, class i, e (CNCM I-2545 (+) IFN-α 100 U/ml 48 hours, (−) 353): 322
- nAD X90846 mixed lineage kinase 2 (CNCM I-2545 (+) IFN-α 100 U/ml 48 hours, (−) 357): 60
- nAD M31013 nonmuscle myosin heavy chain (nmhc) (CNCM I-2545 (+) IFN-α 100 U/ml 48 hours, (−) 377): 263
- nAD D21235 hhr23a protein (CNCM I-2545 (+) IFN-α 100 U/ml 48 hours, (−) 388): 346
- nAD Y00264 amyloid a4 precursor (CNCM I-2545 (+) IFN-α 100 U/ml 48 hours, (−) 392): 427
- nAD Z47055 farnesyl pyrophosphate synthetase like (CNCM I-2545 (+) IFN-α 100 U/ml 48 hours, (−) 394): 797
- nAD U50327 protein kinase c substrate 80k-h gene (prkcsh) (CNCM I-2545 (+) IFN-α 100 U/ml 48 hours, (−) 401): 236
- nAD U61263 acetolactate synthase homolog (CNCM I-2545 (+) IFN-α 100 U/ml 48 hours, (−) 410): 301
- nAD M34338 spermidine synthase (CNCM I-2545 (+) IFN-α 100 U/ml 48 hours, (−) 472): 277
- nAD D49824 hla-b null allele (CNCM I-2545 (+) IFN-α 100 U/ml 48 hours, (−) 527): 267
- nAD M94880 mhc class i (hla-a*8001) (CNCM I-2545 (+) IFN-α 100 U/ml 48 hours, (−) 551): 421
- nAD HG1612 macmarcks (CNCM I-2545 (+) IFN-α 100 U/ml 48 hours, (−) 588): 505
- nAD U65579 mitochondrial nadh dehydrogenase-ubiquinone (CNCM I-2545 (+) IFN-α 100 U/ml 48 hours, (−) 630): 621
- nAD X95325 dna binding protein a variant (CNCM I-2545 (+) IFN-α 100 U/ml 48 hours, (−) 634): 253
- nAD U47025 fetal brain glycogen phosphorylase b (CNCM I-2545 (+) IFN-α 100 U/ml 48 hours, (−) 672): 465
- nAD U18009 chromosome 17q21 clone lf113 (CNCM I-2545 (+) IFN-α 100 U/ml 48 hours, (−) 674): 423
- nAD J04444 cytochrome c-1 gene (CNCM I-2545 (+) IFN-α 100 U/ml 48 hours, (−) 886): 2268
- nAD HG658 major histocompatibility complex, class 1 c (CNCM I-2545 (+) IFN-α 100 U/ml 48 hours, (−) 1183): 455
- nAD D32050 alanyl-trna synthetase (CNCM I-2545 (+) IFN-α 100 U/ml 48 hours, (−) 1458): 761
- nAD J00105 beta-2 microglobulin gene (CNCM I-2545 (+) IFN-α 100 U/ml 48 hours, (−) 1668): 2101
- nAD X57351 1-8d gene from interferon-inducible gene family (CNCM I-2545 (+) IFN-α 100 U/ml 48 hours, (−) 2469): 2686
- nAD U65932 extracellular matrix protein 1 (ecm1) (CNCM I-2545 (+) IFN-α 100 U/ml 48 hours, (−) 2498): 1066
- nAD L13210 mac-2 binding protein (CNCM I-2545 (+) IFN-α 100 U/ml 48 hours, (−) 2555): 2092
- nAD K03515 neuroleukin (CNCM I-2545 (+) IFN-α 100 U/ml 48 hours, (−) 2998): 2552
- nAD M98343 amplaxin (ems1) (CNCM I-2545 (+) IFN-α 100 U/ml 48 hours, (−) −24): 63
- nAD L35249 vacuolar h + -atpase mr 56,000 subunit (ho57) (CNCM I-2545 (+) IFN-α 100 U/ml 48 hours, (−) −40): 357
- nAD U09579 melanoma differentiation associated (mda-6) (CNCM I-2545 (+) IFN-α 100 U/ml 48 hours, (−) −59): −26
- nAD U41515 dss1 (CNCM I-2545 (+) IFN-α 100 U/ml 48 hours, (−) −62): 123
- nAD S81914 iex-1 = radiation-inducible immediate-early gene (CNCM I-2545 (+) IFN-α 100 U/ml 48 hours, (−) −66): 21
- nAD M13755 interferon-induced 17-kda/15-kda protein (CNCM I-2545 (+) IFN-α 100 U/ml 48 hours, (−) −163): 31
- nAD U22970 16-jun gene, interferon-inducible peptide (6-16) (CNCM I-2545 (+) IFN-α 100 U/ml 48 hours, (−) −190): 24
- nAD J04164 interferon-inducible protein 27-sep (CNCM I-2545 (+) IFN-α 100 U/ml 48 hours, (−) −447): −97
- nAD X67325 p27 (CNCM I-2545 (+) IFN-α 100 U/ml 48 hours, (−) −460): −86
- change factor (CF) D21235 hhr23a protein (CNCM I-2545, IFN-α 100 U/ml 48 hours): −0.12
